Source: patent publication US20150225303A1, “IRON-ESSENTIAL FOR FLORA AND FAUNA” (priority 2012, published 2015)

What was measured:
[1] = tested on: maize crop; assay: Field experiment in maize crop, foliar application; format: in vivo; conditions: for Stem girth R1 / Cobs yield R1 / No. of cobs R1 / Seed yield R1: replicate R1; for Cobs yield MEAN / No. of cobs MEAN / Seed yield MEAN / Stem girth MEAN: mean of R1-R3; for Cobs yield R3 / No. of cobs R3 / Seed yield R3 / Stem girth R3: replicate R3
Procedure: Field experiments in maize crop were conducted using the composition of the present invention at Maize Research Centre, Hyderabad during kharif 2009. […] GRIP (Fe HEDP)-15% […]+27% P2O5-1 g/l of water • […] of water • […] of water • T 5: Fe EDTA-12%-1 g/l of water • T 6: […] Control (Only recommended Fertilizer dose) For all the six treatments, the composition of the present invention was used along with the recommended fertilizer dose (180-60-60 kg N-P2O5-K2O/ha). The composition of the present invention (Fe-HEDP) was applied at three stages 20, 40 and 60 days after sowing. The crops were harvested in the month of November i.e. four months after sowing.

[2] = prior art statement; cited from earlier work
[3] = treatment level 2 (2 g/l of water; GRIP T2 printed as 1 g/l)

Compound: O=C([O-])CN(CCN(CC(=O)[O-])CC(=O)[O-])CC(=O)[O-].[Fe+3] [Fe EDTA, Fe-Ethylene diamine tetra acetic acid]
- Stem girth R1 ([1]; 1 g/l of water, applied 20, 40 and 60 days after sowing): 6.6 cm
- Cobs yield MEAN ([1]; 1 g/l of water): 7516.67 kg/ha
- No. of cobs MEAN ([1]; 1 g/l of water): 40.17 ′000 ha
- Seed yield MEAN ([1]; 1 g/l of water): 5777.67 kg/ha
- Stem girth MEAN ([1]; 1 g/l of water): 6.53 cm
- Cobs yield R1 ([1]; 1 g/l of water): 6205 kg/ha
- No. of cobs R1 ([1]; 1 g/l of water): 38.8 ′000 ha
- Seed yield R1 ([1]; 1 g/l of water): 5022.0 kg/ha
- Cobs yield R3 ([1]; 1 g/l of water): 8490 kg/ha
- No. of cobs R3 ([1]; 1 g/l of water): 41.2 ′000 ha
- Seed yield R3 ([1]; 1 g/l of water): 6448.0 kg/ha
- Stem girth R3 ([1]; 1 g/l of water): 6.6 cm
- Cobs yield MEAN [1, 3]: 7875.00 kg/ha
- No. of cobs MEAN [1, 3]: 37.8 ′000 ha
- Seed yield MEAN [1, 3]: 5888.00 kg/ha
- Stem girth MEAN [1, 3]: 6.43 cm
- Cobs yield R1 [1, 3]: 6935 kg/ha
- No. of cobs R1 [1, 3]: 35.6 ′000 ha
- Seed yield R1 [1, 3]: 4355.0 kg/ha
- Stem girth R1 [1, 3]: 6.5 cm
- Cobs yield R3 [1, 3]: 8200 kg/ha
- No. of cobs R3 [1, 3]: 41.0 ′000 ha
- Seed yield R3 [1, 3]: 7633.0 kg/ha
- Stem girth R3 [1, 3]: 6.1 cm

Compound: O=C([O-])C(NCCNC(C(=O)[O-])c1ccccc1[O-])c1ccccc1[O-].[Fe+3] (centres unmarked) [Fe-EDDHA, Fe-ethylene diamine-N,N′-bis (2-hydroxyphenylacetic acid)]
- pH level up to which the chelate is stable [2]: up to 11.0

Compound: O=C([O-])CN(CCN(CC(=O)[O-])CC(=O)[O-])CCN(CC(=O)[O-])CC(=O)[O-].[Fe+3] [Fe-DTPA, Fe-Diethylene triamine penta acetic acid]
- pH level up to which the chelate is stable [2]: up to 7.0
